The values below come from article PMC7830597, “Derivatives of Tenuazonic Acid as Potential New Multi-Target Anti-Alzheimer’s Disease Agents” (Biomolecules, 2021).

Details of series [1]: method as in PMID 30158491. The following applies: DPPH assay; cited from earlier work.
Series [2] addresses T1, Aβ1-42 (Homo sapiens, UniProt P05067).
T1 construct: Amyloid β peptide (Aβ1-42) was purchased from GeneCust as a lyophilised powder; purchased GeneCust
The experiment in a line: Inhibition of Cu2+-induced Aβ1-42 aggregation, thioflavin T fluorescence. Conditions: inhibitor 40 µM, copper 40 µM. Type of series: biochemical. As to the method:
The anti-amyloidogenic activity of all the compounds was also evaluated in vitro, in the absence and in presence of Cu(II), by measuring the fluorescence emission of Thioflavin T (ThT). […] The Aβ self-aggregation inhibitory activity shown by all compounds is higher than that of parent compound TA, with the exception of compound 2 (probably due to solubility issues at the experimental conditions of the assays). The fact that the reference value previously reported by us for TA (50 ± 8%) was obtained for quite different conditions, including a much higher inhibitor concentration (100 μM instead of 40 μM) is noteworthy. […] This may be due to different electronic contributions between the ketone and the ester functions. Therefore, the ester derivatives seem to be better chelators compared to TA.
(§1) The spectrofluorimetric method, based on the fluorescence emission of thioflavin T (ThT), was used to study the Aβ1-42 aggregation inhibition. Firstly, Aβ1-42 was dissolved in HFIP (1,1,1,3,3,3-Hexafluoro-2-propanol) and kept overnight at room temperature in order to obtain a dry film. Then, the film was re-dissolved in CH3CN-Na2CO3 (300μM)/NaOH (250μM) (48.3/48.3/3.4 mL v/v/v) and then phosphate buffer (pH = 8) was added. The ligand solutions were prepared with MeOH (1mg/mL) and further with phosphate buffer. For the inhibition studies of copper-induced Aβ aggregation, a solution of CuCl2 240 μM was used. As a control, a solution of 30 μL of phosphate buffer and 30 μL of Aβ1-42 was used to observe the aggregation without any inhibition, while the ligand assay solutions were composed of 20 μL of phosphate buffer, 30 μL of Aβ1-42 and 10 μL of ligand. The Cu-induced aggregation studies were similarly conducted, adding 10 μL of CuCl2 to induce the fibril aggregation. Each experiment was composed of an assay and a blank sample, where the blank sample lacks Aβ1-42, to monitor the effect of the compounds on the fluorescence emission. The samples were left to incubate in a CERTOMAT WR water bath for 24 h at 37 °C with shaking. After 24 h, a Glycine-NaOH buffer (pH = 8.5) containing ThT were added to each sample in a microplate. The fluorescence signal was monitored at 446 nm (λexc) and 486 nm (λem) with a Varian Cary Eclipse fluorimeter. Amyloid β peptide (Aβ1-42) was purchased from GeneCust as a lyophilised powder and stored at −20 °C [12, 13, 14].

Details of series [3]: method as in literature. The following applies: value reported in the literature; ref literature; cited from earlier work.
Series [4] addresses T1, Aβ1-42. Also noted: method as in PMID 30158491. The following applies: Cinhibitor = 100 µM; cited from earlier work.
Series [5] addresses T1, Aβ1-42. Nature of the series: biochemical. Conditions: Aβ1-42, inhibitor 40 µM, SEM < 10%; for inhibition at 40 µM: read-out: Inhib. Aβ Aggreg. Self-Induced; for Inhib. Aβ Aggreg. Self-Induced: 40 µM. As to the method:
The anti-amyloidogenic activity of all the compounds was also evaluated in vitro, in the absence and in presence of Cu(II), by measuring the fluorescence emission of Thioflavin T (ThT).
as §1, with “Then, the film was re-dissolved in CH3CN-Na2CO3 (300μM)/NaOH (250μM) (48.3/48.3/3.4 mL v/v/v) and then phosphate buffer (pH = 8) was added.” left out, “For the inhibition studies of copper-induced Aβ aggregation, a solution of CuCl2 240 μM was used.” left out

Series [6] deals with AChE of electroforus electricus (electric eel) (Electrophorus electricus, UniProt O42275). The experiment in a line: biochemical. Conditions: mean of three independent experiments ± SEM. How it is done:
All new racemic compounds were tested as acetylcholinesterase inhibitors via an in vitro assay, following a modification of Ellman’s method in three independent experiments, using tacrine as a reference compound. […] Enzyme inhibition assays were performed using an adaptation of Ellman’s method. The readings were made in a spectrophotometer Perkin-Elmer Lambda 35 UV-Vis. Enzyme activity is measured by following the increase in yellow color produced from thiocholine when it reacts with dithiobisnitrobenzoate ion (DTNB). DTNB solution was obtained dissolving the reagent in HEPES buffer with salts, namely NaCl (50 mM) and MgCl2 (20 mM), obtaining a 3 mM solution. The enzyme AChE of electroforus electricus (electric eel) stock (500 U) was dissolved in TRIS 50 mM, pH 8.0, being posteriorly diluted to assay concentrations (5 U), obtaining an aliquot of 1 mL. The enzyme substrate used was acetylthiocholine iodide (AThCh, 16 mM), which was prepared with deionized water. The compounds tested were diluted in MeOH or DMSO (1 mg/mL, 2–7 × 10^−3 M), with further dilution, and five different concentrations were used for each compound, obtaining different percentages of AChE inhibition. The assay consists in the addition of HEPES (50 mM, pH = 8), inhibitor, AChE and MeOH in a 1 mL cuvette. The mixture was left to incubate for 15 min and, after that, AThCh and DTNB were added. The enzymatic reaction was followed through the measurements of absorbencies at 405 nm (Perkin Elmer Lambda 35 spectrophotometer equipped with a temperature programmer PTP 1þ1 Peltier System, using thermostated (T = 25.0 ± 0.1 °C) 1 cm path length cells) during 5 min. A blank solution containing all the components except the enzyme, that was substituted for equal volume of HEPES, was used. A control reaction was used using MeOH instead of the new compounds and was considered the reaction corresponding to 100% enzymatic activity. Each assay was performed in quintupled.

A short description of series [7]: Radical scavenging activity, DPPH method. Conditions: DPPH assay; mean ± SEM of 3 independent experiments. As to the method:
Therefore, they were assayed for radical scavenging activity using the DPPH method.
The final volume of the assay was 3.5 mL, corrected with MeOH to obtain different concentrations of our compound in each assay. The control solution was composed of MeOH and DPPH [14]. After 30 min, at RT, protected from light, the absorbance was measured at 517 nm (Perkin Elmer Lambda 35 spectrophotometer equipped with a temperature programmer PTP 1þ1 Peltier System, using thermostated (T¼25.0 ± 0.1 °C) 1 cm path length cells), against a blank solution (MeOH). The assays were performed in triplicate, in which the EC50 was obtained through the graphical representation of the %AA vs. the inhibitor concentration.
In general terms: DPPH is a stable violet radical that fades when it is reduced.

Series [8] concerns SH-SY5Y human neuroblastoma cells. The experiment in a line: Dose-response cell viability screening, MTT reduction assay. Type of series: cell-based. Conditions: for highest non-toxic concentration (selected concentration): SH-SY5Y cells exposed for 25 h. As to the method: (§2) SH-SY5Y human neuroblastoma cells (ATCC-CRL-2266) were seeded in DMEM/F12 (Dulbecco’s Modified Eagle Medium/Ham’s F-12 Nutrient Mixture; Thermo Fisher Scientific) with 10% heat inactivated fetal bovine serum, 50 U/mL penicillin and 50 U/mL streptomycin under a humidified atmosphere with 95% relative humidity at 37 °C at a 0.16 × 10^6 cells/mL density. Stock solutions from tested compounds (1, 2, 4 and 5) were prepared in DMSO at a 25 mM concentration and stored at −20 °C until needed. In order to select the highest non-toxic concentration, a dose-response screening was performed, where SH-SY5Y cells were exposed to the compounds for 25 h. The selected concentrations for each compound were: 75 µM final concentration for 1 and 2; 10 µM final concentration for 4 and 20 µM final concentration for 5. […] For the neuroprotection assays, the selected compounds were added to the cell media 1 hour prior to the incubation with Aβ1-42 or L-ascorbic acid/ferrous sulphate. Aβ1-42 or L-ascorbic acid/ferrous sulphate treatment was maintained for another 24 h. Aβ1-42 was prepared as 276.9 µM stock in sterile water and administrated in the medium at a 2.5 µM final concentration. Ferrous sulphate was freshly prepared as 0.36 M stock in water and added to the medium at 2.5 mM final concentration. L-ascorbic acid was freshly prepared as 80 mM stock in water and added to the medium at 5 mM final concentration. Aβ1-42 was purchased from Bachem (Torrance, CA, USA) and ferrous sulphate and L-ascorbic acid from Sigma Chemical Co (St. Louis, MO, USA).
(§3) Cell viability was measured by using the MTT (3-(4,5-dimethylthiazol-2-yl)-2,5-diphenyl tetrazolium bromide) reduction assay. This test is based on the presence of succinate dehydrogenase enzyme in viable cells, that allows them to metabolize MTT into a formazan. After treatment, the medium was removed, and cells were washed with 1x PBS one time to remove dead cells. 200 µL of MTT solution (0.5 mg/mL) was added to each well and incubated for 2 h protected from light. Formazan precipitates were then dissolved in DMSO and absorbance measured at 570 nm. The ability to reduce MTT was expressed as a percentage of untreated control cells.
Figure 10 Dose-response screening of compounds 1, 2, 4 and 5 on SH-SY5Y neuronal cell line. Overnight cultures were treated with a range of concentrations from 10 μM to 100 μM for 24 h and cellular viability was determined by employing the MTT reduction assay.
Background: Formazan colour is commonly taken as a measure of viable cells.

For series [9] the test system is unchanged. Nature of the series: Neuroprotection against Aβ1-42-induced toxicity, MTT. It is filed as cell-based. Conditions: Aβ1-42 2.5 μM 24 h; 1 h pre-incubation; compounds 1, 2 100 µM; 4 10 µM; 5 20 µM. How it is done: as §2, §3
Overnight cultures were treated with Aβ1-42 peptide (2.5 μM) for 24 h in the absence or in the presence of the compounds. When compounds were present, a pre-incubation of 1 h preceded the Aβ1-42 treatment. Cellular viability was determined by employing the MTT reduction assay. […] (compounds: 1, 2–100 µM; 4–10 µM; 5–20 µM).

For series [10] the test system is unchanged. The experiment in a line: Neuroprotection against ferrous sulfate/L-ascorbic acid insult, MTT. Type of series: cell-based. The following applies: Fe/Asc 24 h; 1 h pre-incubation; compound 5 20 µM. How it is done:
SH-SY5Y human neuroblastoma cells (ATCC-CRL-2266) were seeded in DMEM/F12 (Dulbecco’s Modified Eagle Medium/Ham’s F-12 Nutrient Mixture; Thermo Fisher Scientific) with 10% heat inactivated fetal bovine serum, 50 U/mL penicillin and 50 U/mL streptomycin under a humidified atmosphere with 95% relative humidity at 37 °C at a 0.16 × 10^6 cells/mL density. Stock solutions from tested compounds (1, 2, 4 and 5) were prepared in DMSO at a 25 mM concentration and stored at −20 °C until needed. In order to select the highest non-toxic concentration, a dose-response screening was performed, where SH-SY5Y cells were exposed to the compounds for 25 h. The selected concentrations for each compound were: 75 µM final concentration for 1 and 2; 10 µM final concentration for 4 and 20 µM final concentration for 5. […]
Cell viability was measured by using the MTT (3-(4,5-dimethylthiazol-2-yl)-2,5-diphenyl tetrazolium bromide) reduction assay. […] Formazan precipitates were then dissolved in DMSO and absorbance measured at 570 nm. The ability to reduce MTT was expressed as a percentage of untreated control cells.
Figure 12 Neuroprotective effect of compounds after Ferrous Sulfate (Fe)/L-Ascorbic Acid (AscH(-)) insult. […] Cellular viability was determined by employing the MTT reduction assay. […]

Where [11] appears, read: AChE from electric eel, read-out: eeAChEi IC50.

Entries after “also recorded” stand apart in the source; their conditions may differ. Where two headings read alike, the source gives them in different places.

T1 sequence (P05067 672-713 limits assumed): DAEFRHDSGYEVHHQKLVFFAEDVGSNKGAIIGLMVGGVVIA
Chain of AChE of electroforus electricus (electric eel) (O42275 24-633): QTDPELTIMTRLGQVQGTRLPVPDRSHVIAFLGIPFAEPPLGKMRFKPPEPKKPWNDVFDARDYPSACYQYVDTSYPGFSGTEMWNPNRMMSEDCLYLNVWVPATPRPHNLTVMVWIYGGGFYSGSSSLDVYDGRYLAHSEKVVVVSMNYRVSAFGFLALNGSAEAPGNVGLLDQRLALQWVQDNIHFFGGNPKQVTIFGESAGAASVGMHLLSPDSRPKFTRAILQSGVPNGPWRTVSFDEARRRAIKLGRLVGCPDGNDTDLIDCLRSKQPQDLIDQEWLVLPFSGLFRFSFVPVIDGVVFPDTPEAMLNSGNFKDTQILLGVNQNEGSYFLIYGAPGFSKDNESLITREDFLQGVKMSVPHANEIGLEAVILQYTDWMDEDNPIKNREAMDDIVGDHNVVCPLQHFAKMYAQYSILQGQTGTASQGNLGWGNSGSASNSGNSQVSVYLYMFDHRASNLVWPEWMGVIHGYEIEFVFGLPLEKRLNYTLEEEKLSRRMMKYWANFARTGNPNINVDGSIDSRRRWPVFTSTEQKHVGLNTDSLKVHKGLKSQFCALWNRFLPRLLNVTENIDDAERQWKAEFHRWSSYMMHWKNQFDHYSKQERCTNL

For `CC[C@H](C)[C@@H]1NC(=O)C(C(C)=O)=C1O` (stereo in doubt) [Tenuazonic acid], in [1], the “Antioxidant Activity EC50” value is “- 2.6 ± 0.2 [19] µmol/µmol of DPPH”. Further, in series [2], the “Inhib. Aβ Aggreg. Cu2+-Induced” value is listed as “did not demonstrate a significant difference of effect”. The “log K (protonation constant)” value in series [3] is on record as 3.523. Further, the “Inhib. Aβ Aggreg. Self-Induced” value in series [4] is reported as 50 ± 8%. In addition, the inhibition at 40 µM in [5] amounted to 25.2%. Half-maximal inhibition in series [6] (eeAChEi IC50, AChE from electric eel) (IC50) was put at 65 ± 4 µM.

As to `CCOC(=O)C1=C(O)C(C)NC1=O` (stereo not drawn) [Compound 3, Ethyl 4-hydroxy-5-methyl-2-oxo-2,5-dihydro-1H-pyrrole-3-carboxylate], the results for the inhibition at 40 µM in series [2] (read-out: Inhib. Aβ Aggreg. Cu2+-Induced) and in series [5] were 63.8% and 57.4%, respectively. In addition, the IC50 in series [6] (setting [11]) came out at 44 ± 4 µM. Besides, the “Antioxidant Activity EC50” value in series [7] is recorded as >30 µmol/µmol of DPPH.

As for `O=C1C=C(NCCN2CCN(Cc3ccccc3)CC2)C(Cc2ccccc2)N1` (stereo not drawn) [Compound 4, 5-Benzyl-4-((2-(4-benzylpiperazin-1-yl)ethyl)amino)-1,5-di-hydro-2H-pyrrol-2-one], in series [8], the “highest non-toxic concentration (selected concentration)” value is recorded as 10 µM. Also, in [9], the “protection against Aβ1-42-induced toxicity” value was “do not confer protection”. Besides, in series [5], the “Inhib. Aβ Aggreg. Self-Induced” value is on record as 72.0% and the inhibition at 40 µM was 72 to 78.4%. Moreover, the IC50 in series [6] (setting [11]) was found to be 16 ± 2 µM. Further, the “Antioxidant Activity EC50” value in series [7] is given as >30 µmol/µmol of DPPH.

For the compound `CC(C)C1NC(=O)C=C1NCCN1CCN(Cc2ccccc2)CC1` (stereo not drawn) [Compound 5, 4-((2-(4-Benzylpiperazin-1-yl)ethyl)amino)-5-isopropyl-1,5-dihydro-2H-pyrrol-2-one], in [8] (10 μM to 100 μM, 24 h, at the active concentrations), the “cytotoxicity on SH-SY5Y cell line” value is “non-cytotoxic; also recorded: do not show (except for compound 4) cytotoxicity”. For the same compound, the “highest non-toxic concentration (selected concentration)” value in series [8] was found to be 20 µM. The “neuroprotection against Fe/Asc challenge” value in series [10] is given as “conferred neuroprotection against the Fe/Asc challenge”. Further, the “protection against Aβ1-42-induced toxicity” value in [9] is on record as “do not confer protection; also recorded: not able to directly protect SH-SY5Y cells from Aβ1-42-induced cell toxicity”. In series [5], the “Inhib. Aβ Aggreg. Self-Induced” value was 78.4% and the inhibition at 40 µM was 72 to 78.4%. In series [6] (setting [11]), the IC50 was determined as 24 ± 3 µM. In [7], the “Antioxidant Activity EC50” value was >30 µmol/µmol of DPPH.

As usually defined, the IC50 is the concentration at which inhibition is half-maximal.
